In patent publication US9763961B2, “Compositions that modulate the activity of estrogen receptors and estrogen-related receptors and methods for use” (CITY OF HOPE, priority 2005, dated 2017):

Legend:
ERRα = target: T1, ERRα (Homo sapiens, UniProt P11474); assay: Competitive [3H] genistein binding whole cell assay in ERRα-positive SK-BR-3 cells; parameters: endogenous in cells; host or cells: SK-BR-3; settings: FIG. 4
T1 sequence (P11474 1-423): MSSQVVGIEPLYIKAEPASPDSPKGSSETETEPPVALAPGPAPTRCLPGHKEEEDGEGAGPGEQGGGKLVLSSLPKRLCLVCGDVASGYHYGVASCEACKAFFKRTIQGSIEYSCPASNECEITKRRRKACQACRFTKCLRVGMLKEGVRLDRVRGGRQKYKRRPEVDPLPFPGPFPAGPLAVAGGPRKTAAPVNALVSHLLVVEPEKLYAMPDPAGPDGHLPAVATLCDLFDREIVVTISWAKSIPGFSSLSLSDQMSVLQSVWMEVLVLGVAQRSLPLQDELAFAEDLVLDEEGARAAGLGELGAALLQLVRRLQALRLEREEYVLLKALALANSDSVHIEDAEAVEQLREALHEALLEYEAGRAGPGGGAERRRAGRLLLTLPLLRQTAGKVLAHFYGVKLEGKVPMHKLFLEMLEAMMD
Description: In order to directly measure the binding affinities of agonists and inverse agonists to ERRα, we performed a competitive ERR binding whole cell assay using ERRα-positive SK-BR-3 cells. This method is developed based on the ER binding assay posted by the National Toxicology Program at the NIEHS <<http://iccvam.niehs.nih.gov/methods/endodocs/final/erbndbrd/erbdappx/B1.pdf>>. […] After the cells were washed twice with PBS, 250 μl ethanol will be added to each well for 20 min. Aliquots of ethanol extract was mixed with scintillation liquid for radioactivity measurements. The experiments have been performed in triplicate.
In addition to reporter activity assay, in order to evaluate the interaction of chalcones with ERRα, a competitive binding assay was performed.
Referring to FIG. 4, SK-BR-3 cells, which are positive for ERRα, were incubated with 1 μM of [3H] GEN and increasing concentrations of unlabeled GEN or Compound Nos. 1-9 or 7-5. After 1 h of incubation, the cells were washed with 1× PBS, and [3H] GEN was then extracted from the cells by an incubation of 30 min in 250 μl of ethanol. Values represent the mean±SD.

ERα = target: T2, ERα (Homo sapiens, UniProt P03372); assay: Transient transfection luciferase assay with pSG5-ERa and ERE-SV40 reporter in HeLa cells, with 100 pM estradiol; assay type: cell-based; settings: for IC50: HeLa cells, in the presence of 100 pM of estradiol, 24 h; for Antagonistic properties on ERa (in words): transient transfection
T2 construct: expressed in transfected cells; host or cells: HeLa
T2 sequence (P03372 1-595): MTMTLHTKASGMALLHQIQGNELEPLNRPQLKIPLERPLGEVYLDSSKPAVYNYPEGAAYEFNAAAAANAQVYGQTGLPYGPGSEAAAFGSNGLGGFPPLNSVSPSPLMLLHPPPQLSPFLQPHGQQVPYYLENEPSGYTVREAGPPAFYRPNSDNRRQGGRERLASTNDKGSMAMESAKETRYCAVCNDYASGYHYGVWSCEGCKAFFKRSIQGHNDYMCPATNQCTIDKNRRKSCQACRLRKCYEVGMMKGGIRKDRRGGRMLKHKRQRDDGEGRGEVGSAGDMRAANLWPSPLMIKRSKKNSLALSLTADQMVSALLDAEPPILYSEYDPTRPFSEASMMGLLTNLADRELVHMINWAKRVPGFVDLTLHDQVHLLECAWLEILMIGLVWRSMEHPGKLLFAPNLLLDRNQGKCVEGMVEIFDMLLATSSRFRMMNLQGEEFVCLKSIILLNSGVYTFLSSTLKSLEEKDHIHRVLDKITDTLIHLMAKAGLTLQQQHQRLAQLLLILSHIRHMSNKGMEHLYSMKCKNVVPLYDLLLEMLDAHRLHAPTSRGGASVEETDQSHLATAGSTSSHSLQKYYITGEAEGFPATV

[1] = system: promoter I.3 of human aromatase gene (through ERRα); assay: Aromatase promoter I.3 luciferase reporter with pSG5-ERRα in HepG2 cells; assay type: cell-based; settings: 24 h, FIG. 5
Description: Aromatase expression is regulated by several promoters, including ERRα modulating promoter I.3. In order to evaluate the effect of chalcones on aromatase activity through ERRα, transient transfection experiments using luciferase reporter plasmid containing a regulatory element S1 and promoter I.3 of human aromatase gene were performed in HepG2 cells. The transfected cells were incubated with chalcones, and luciferase activity was measured.
Referring to FIG. 5, HepG2 cells were cotransfected with pSG5-ERRα (2 μg) and luciferase reporter plasmid containing S1 and promoter I.3 of human aromatase gene (0.5 μg). The transfected cells were incubated with Compound No. 1-9 for 24 h. After cells were washed with 1× PBS, luciferase activity was measured. Values represent the mean±SD.

[2] = system: ERRα with coactivators GRIP-1 and PGC-1a; assay: Coactivator (GRIP-1, PGC-1a)-induced ERRα activity, Gal4-TK-Luc cotransfection in HeLa cells; assay type: cell-based; settings: GRIP-1 and PGC-1a cotransfection, FIG. 3
From the text: To further confirm the antagonism of chalcones, the effect of Compound No. 1-9 on the interaction between ERRα and coactivators (GRIP-1 and PGC-1a) were investigated. HeLa cells were cotransfected with GAL4-binding site containing luciferase reporter and the expression plasmids for ERRα, GRIP-1 and PGC-1a. The ERRα activity was induced 5-fold and 13-fold by cotransfection with GRIP-1 and PGC-1 a, respectively.
Referring to FIG. 3, cotransfection experiments with GAL4-binding site containing luciferase reporter (Gal4-TK-Luc; 0.5 μg) and the expression plasmids for ERRα (pM-ERRα LBD; 0.5 μg), GRIP-1 (pSG5-GRIP-1; 0.5 μg) and PGC-1a(pSG5-PGC-1α; 0.25 μg) were performed in HeLa cells. Values represent the mean±SD.

[3] = system: aromatase in SK-BR-3 cells; assay: In-cell aromatase assay in SK-BR-3 cells; assay type: cell-based; settings: 24 h, FIG. 6D
Description: To evaluate the effect of chalcones on aromatase activity, we performed both in vitro assay and in-cell assay with chalcones. […] In addition, MCF-7 aro cells, which are stable aromatase-expressing breast cancer cell line, were incubated with chalcones.
Referring to FIG. 6, the effect of Compound No. 1-9 on aromatase activity was investigated by both in vitro inhibition assay (A) and in-cell aromatase assay (B; MCF-7 aro cells, C; HepG2 cells, D; SK-BR-3 cells). Referring to FIG. 6A, aromatase inhibition study with Compound No. 1-9 was performed on a human placental microsomal aromatase preparation using the assay procedures described in (9). Referring to FIG. 6B, MCF-7 aro cells, which are stable aromatase-expressing cell line generated in our laboratory (10), were incubated with 10 μM of Compound No. 1-9. After 24 h incubation, aromatase activity was measured by [3H] H20 release method. HepG2 cells, as shown in FIG. 6C and SK-BR-3 cells as shown in FIG. 6D were also incubated with Compound No. 1-9 for 24 h, and aromatase activities were measured. Values represent the mean±SD.

IC50 (ERα) | Antagonistic properties on ERa (in words) (ERα) | Structure (SMILES) | Inhibition of binding of [3H] labeled genistein (in words) (ERRα) | Effect on promoter I.3 activity [1] | Effect on coactivator-induced ERRα activity [2] | Effect on aromatase activity, SK-BR-3 cells [3]
3.3 µM | showed antagonistic properties | COc1cccc(/C=C/C(=O)c2ccc(O)cc2O)c1OC [Compound No. 1-9, 2′,4′-Dihydroxy-2,3-dimethoxychalcone] | competitively inhibited the binding of [3H] labeled genistein in a dose-dependent manner | suppressed the promoter I.3 activity in a dose-dependent manner | suppressed the coactivator-induced ERRα activity in a dose-dependent manner | inhibited aromatase activity in a dose-dependent manner
3.7 µM | showed antagonistic properties | O=C(/C=C/c1ccccc1O)c1ccc(O)cc1O [Compound No. 7-5, 2,2′,4′-Trihydroxychalcone] | competitively inhibited the binding of [3H] labeled genistein in a dose-dependent manner |  |  | 
